The record followed here is US20230330045A1 (priority 2020, published 2023).

The assay addresses eel acetylcholinesterase (AChE) (Electrophorus electricus, UniProt O42275). Kind of assay: Eel AChE fluorescence assay (AMPLEX Red kit). Type of assay: biochemical. The settings on record: for inhibition of AChE activity (in words): eel AChE, 20 μM; for assay interference test versus enzyme-free H2O2 reaction: parallel dose-response with 5 μM H2O2; for Hill slope, eel AChE dose-response: sixteen-point serial dilution, four-parameter fit. As to the method:
Enzymatic reactions consisted of 50 μM acetylcholine, 200 μM AIVIPLEX™ Red reagent, 1 U/mL horseradish peroxidase, 0.1 U/mL choline oxidase and 0.096 U/mL acetylcholinesterase, with 30 1% DMSO. […] Control reactions lacking acetylcholinesterase but containing 5 μM H2O2 in presence of compounds were analyzed at the same wavelength to exclude compounds that display assay interference. Dose-response curves were performed in duplicate.

Where [1] appears, read: eel AChE activity, at 20 μM, read-out: Percentage inhibition.
Where [2] appears, read: read-out: inhibition of enzyme activity compared to DMSO control (screen).

Structures can show the parent of a compound that is named as a salt. Where two headings read alike, the source gives them in different places. Some results are limits rather than exact numbers.

eel acetylcholinesterase (AChE), sequence (O42275 24-633): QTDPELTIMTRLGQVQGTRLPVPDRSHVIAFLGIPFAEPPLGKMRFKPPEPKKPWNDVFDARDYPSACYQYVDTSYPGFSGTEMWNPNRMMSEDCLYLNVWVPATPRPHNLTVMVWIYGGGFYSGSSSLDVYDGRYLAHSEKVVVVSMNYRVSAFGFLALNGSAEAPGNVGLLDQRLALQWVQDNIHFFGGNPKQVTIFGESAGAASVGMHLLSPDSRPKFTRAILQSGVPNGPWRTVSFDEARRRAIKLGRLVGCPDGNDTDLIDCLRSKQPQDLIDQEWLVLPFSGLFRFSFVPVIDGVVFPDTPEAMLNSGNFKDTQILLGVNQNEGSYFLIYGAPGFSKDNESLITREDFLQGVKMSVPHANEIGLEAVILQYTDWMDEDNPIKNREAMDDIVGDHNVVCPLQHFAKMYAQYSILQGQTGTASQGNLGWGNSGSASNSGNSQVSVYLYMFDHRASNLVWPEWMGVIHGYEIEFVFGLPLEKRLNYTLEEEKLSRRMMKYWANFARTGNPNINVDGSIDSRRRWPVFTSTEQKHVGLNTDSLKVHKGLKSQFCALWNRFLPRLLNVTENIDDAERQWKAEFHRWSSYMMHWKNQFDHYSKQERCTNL

Regarding `O=C1c2cc(O)ccc2-c2ccc(O)cc21` [2,7-dihydroxy-9H-fluoren-9-one], the “inhibition of AChE activity (in words)” value is given as “neither fluorenone, nor the close derivative 2,7-dihydroxy-9H-fluoren-9-one inhibit AChE activity”. Further, the inhibition at 20 µM under setting [1] stood at 30%. For the molecule `Nc1c2ccccc2nc2ccccc12` [aminacrine], the inhibition at 20 µM under setting [1] was found to be 99.2%. As for `Cc1cc(N)c2ccccc2[n+]1CCCCCCCCCC[n+]1c(C)cc(N)c2ccccc21` [dequalinium chloride], the “assay interference test versus enzyme-free H2O2 reaction” value was “likely represent true inhibition of the enzyme” and the “Hill slope, eel AChE dose-response” value is 0.87. Also, the inhibition at 20 µM under setting [2] was ≥ 50%. As for `O=C1c2ccccc2-c2ccccc21` [fluorenone], the inhibition at 20 µM under setting [1] was found to be 3%. Turning to `CCN(CC)CCNc1ccc(C)c2sc3ccccc3c(=O)c12` [lucanthone], the “inhibition of AChE activity (in words)” value is reported as “did not show appreciable activity”. In addition, the inhibition at 20 µM under setting [1] amounted to 11%. For the molecule `COc1ccc2nc3cc(Cl)ccc3c(Nc3cc(CN4CCCC4)c(O)c(CN4CCCC4)c3)c2n1` [pyronaridine], the inhibition at 20 µM is, setting by setting: under setting [1], 53.6%; under setting [2], > 50%.

As to `CCN(CC)CCC[C@H](C)Nc1c2ccc(Cl)cc2nc2ccc(OC)cc12` [quinacrine hydrochloride], the inhibition at 20 µM is, setting by setting: under setting [1], 61.8%; under setting [2], > 50%. `CO[C@H]1/C=C/O[C@@]2(C)Oc3c(C)c(O)c4c(O)c(c5c(nc6cc(C)ccn65)c4c3C2=O)NC(=O)/C(C)=C\C=C\[C@H](C)[C@H](O)[C@@H](C)[C@@H](O)[C@@H](C)[C@H](OC(C)=O)[C@@H]1C` [rifaximin]: under setting [2], the inhibition at 20 µM is ≥ 50%. Consider agelasine, for which the “assay interference test versus enzyme-free H2O2 reaction” value was “likely represent true inhibition of the enzyme” and the “Hill slope, eel AChE dose-response” value is on record as 0.79.
